Experiments:
Format in all cases: in vitro ADME
[1] = Assay 3. Fecal Incubation Stability; settings: 1 or 10 μM, human fecal slurry, anaerobic
Procedure: Assay 3. Fecal Incubation Stability. This assay was used to assess the stability of an acylated active agent in a large intestine. All experiments were performed in an anaerobic chamber containing 90% nitrogen, 5% hydrogen and 5% carbon dioxide. Human fecal matter in a slurry (15% WV) is added to 96 well plates containing YCFA media or other suitable media (1.6 mL). Compounds were added to each individual well to reach a final analyte concentration of 1 or 10 μM, and the material was mixed by pipetting. At set time points a sample was removed, quenched with acetonitrile, and analyzed by LC/MS.

[2] = Assay 1. Stability in Simulated Gastric Fluid (SGF); settings: 1 μM, 37° C., SGF pH 1.6 with pepsin
How it was run: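 Acylated compounds at a final 1 μM (diluted from 1 mM DMSO stock) were incubated at 37 °C in SGF of pH 1.6 NaCl buffer with FaSSIF powder and 0.1 mg/mL pepsin. Aliquots were quenched with acetonitrile at T0 and regular intervals, and degradation rates were determined by LC/MS.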

[3] = Assay 2. Stability in Simulated Intestinal Fluid (SIF); settings: 1 μM, 37° C., SIF pH 6.7 with pancreatin
How it was run: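 Acylated compounds at 1 μM (from 1 mM DMSO stock) in fresh SIF: FaSSIF with pancreatin in pH 6.7 phosphate buffer, agitated at 37 °C. Aliquots from T0 onward quenched with 1 volume acetonitrile; LC/MS gives degradation rates.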

SMILES	Assay 3 (% Remaining at 24 h) [1]	Assay 1 (SGF) (% Remaining @ 1 hours) [2]	Assay 2 (SIF) (% @ Remaining 4 hours) [3]
CCC(=O)O[C@@H]1[C@H](OC)OC[C@@H](OC(=O)CC)[C@H]1OC(=O)CC [Compound 101, (2R,3S,4R,5R)-2-methoxy-3,5-bis(propanoyloxy)oxan-4-yl Propanoate]	B (B: 25-75% of the tested compound remaining)	C (C: >75% of the tested compound remaining)	A (A: <25% of the tested compound remaining)
CCCC(=O)O[C@@H]1[C@H](OC(=O)CCC)C=C(C(=O)O)C[C@H]1OC(=O)CCC [Compound 255, (3R,4S,5R)-3,4,5-tris(butanoyloxy)cyclohex-1-ene-1-carboxylic Acid]	B (B: 25-75% of the tested compound remaining)	C (C: >75% of the tested compound remaining)	C (C: >75% of the tested compound remaining)
CCC(=O)O[C@@H]1[C@@H](OC(=O)CC)[C@H](C)O[C@@H](OC(=O)Cc2c[nH]c3ccccc23)[C@@H]1OC(=O)CC [Compound 147, (2S,3R,4R,5S,6S)-2-{[2-(1H-indol-3-yl)acetyl]oxy}-6-methyl-4,5-bis(propanoyloxy)oxan-3-yl Propanoate]	A (A: <25% of the tested compound remaining)	C (C: >75% of the tested compound remaining)	A (A: <25% of the tested compound remaining)
CO[C@H]1OC[C@@H](OC(C)=O)[C@H](OC(C)=O)[C@H]1OC(C)=O [Compound 46, (2S,3R,4S,5R)-2-methoxytetrahydro-2H-pyran-3,4,5-triyl Triacetate]	B (B: 25-75% of the tested compound remaining)	C (C: >75% of the tested compound remaining)	B (B: 25-75% of the tested compound remaining)
C[C@@H]1CCO[C@](C)(C(=O)Oc2ccc(/C=C/c3cc(OC(=O)[C@@]4(C)OCC[C@@H](C)O4)cc(OC(=O)[C@@]4(C)OCC[C@@H](C)O4)c3)cc2)O1 [Compound 257, 3-[(2S,4R)-2,4-dimethyl-1,3-dioxane-2-carbonyloxy]-5-[(1E)-2-{4-[(2S,4R)-2,4-dimethyl-1,3-dioxane-2-carbonyloxy]phenyl}ethenyl]phenyl (2S,4R)-2,4-dimethyl-1,3-dioxane-2-carboxylate]	A (A: <25% of the tested compound remaining)	C (C: >75% of the tested compound remaining)	A (A: <25% of the tested compound remaining)
CCCC(=O)O[C@H]1[C@H](OC(=O)CCC)[C@@H](OC(=O)CCc2c[nH]c3ccccc23)O[C@@H](C)[C@H]1OC(=O)CCC [Compound 120, (2R,3S,4R,5R,6S)-4,5-bis(butanoyloxy)-2-{[3-(1H-indol-3-yl)propanoyl]oxy}-6-methyloxan-3-yl Butanoate]	A (A: <25% of the tested compound remaining)	B (B: 25-75% of the tested compound remaining)	
CO[C@@H]1OC[C@@H](OC(C)=O)[C@H](OC(C)=O)[C@H]1OC(C)=O [Compound 45, (2R,3R,4S,5R)-2-methoxytetrahydro-2H-pyran-3,4,5-triyl Triacetate]	B (B: 25-75% of the tested compound remaining)	C (C: >75% of the tested compound remaining)	B (B: 25-75% of the tested compound remaining)
CC(=O)OC[C@H]1O[C@@H](OC(C)=O)[C@H](N)[C@@H](OC(C)=O)[C@@H]1OC(C)=O [Compound 194, (2S,3R,4R,5S,6R)-6-(acetoxymethyl)-3-aminotetrahydro-2H-pyran-2,4,5-triyl Triacetate]	C (C: >75% of the tested compound remaining)	C (C: >75% of the tested compound remaining)	A (A: <25% of the tested compound remaining)
CCCC(=O)O[C@@H]1[C@@H](OC(=O)CCC)[C@H](C)O[C@@H](OC(=O)CCc2c[nH]c3ccccc23)[C@@H]1OC(=O)CCC [Compound 116, (2S,3R,4R,5S,6S)-4,5-bis(butanoyloxy)-2-{[3-(1H-indol-3-yl)propanoyl]oxy}-6-methyloxan-3-yl Butanoate]	A (A: <25% of the tested compound remaining)	C (C: >75% of the tested compound remaining)	A (A: <25% of the tested compound remaining)
CCC(=O)O[C@H]1[C@@H](OC(=O)CCc2c[nH]c3ccccc23)OC[C@@H](OC(=O)CC)[C@H]1OC(=O)CC [Compound 126, (2R,3R,4R,5R)-3,4,5-tris(propanoyloxy)oxan-2-yl 3-(1H-indol-3-yl)propanoate]	A (A: <25% of the tested compound remaining)	C (C: >75% of the tested compound remaining)	A (A: <25% of the tested compound remaining)
CCC(=O)OC[C@H]1O[C@H](OC(=O)/C=C/c2c[nH]c3ccccc23)[C@H](OC(=O)CC)[C@@H](OC(=O)CC)[C@@H]1OC(=O)CC [Compound 131, (2R,3R,4S,5R,6R)-3,4,5-tris(propanoyloxy)-6-[(propanoyloxy)methyl]oxan-2-yl (2E)-3-(1H-indol-3-yl)prop-2-enoate]	A (A: <25% of the tested compound remaining)	B (B: 25-75% of the tested compound remaining)	
CCC(=O)O[C@@H]1[C@@H](OC(=O)CC)[C@@H](OC(=O)Cc2c[nH]c3ccccc23)OC[C@H]1OC(=O)CC [Compound 149, (2R,3R,4S,5R)-2-{[2-(1H-indol-3-yl)acetyl]oxy}-4,5-bis(propanoyloxy)oxan-3-yl Propanoate]	A (A: <25% of the tested compound remaining)	C (C: >75% of the tested compound remaining)	A (A: <25% of the tested compound remaining)
CCC(=O)O[C@H]1[C@H](OC(=O)CCc2c[nH]c3ccccc23)OC[C@@H](OC(=O)CC)[C@H]1OC(=O)CC [Compound 130, (2S,3R,4R,5R)-3,4,5-tris(propanoyloxy)oxan-2-yl 3-(1H-indol-3-yl)propanoate]	A (A: <25% of the tested compound remaining)	B (B: 25-75% of the tested compound remaining)	A (A: <25% of the tested compound remaining)
CCC(=O)Oc1cc(C(=O)O)cc(OC(=O)CC)c1OC(=O)CC [Compound 239, 3,4,5-tris(propanoyloxy)benzoic Acid]	A (A: <25% of the tested compound remaining)	C (C: >75% of the tested compound remaining)	A (A: <25% of the tested compound remaining)
CCCC(=O)OC[C@H]1O[C@H](OC(=O)CCc2c[nH]c3ccccc23)[C@H](OC(=O)CCC)[C@@H](OC(=O)CCC)[C@@H]1OC(=O)CCC [Compound 122, [(2R,3R,4S,5R,6R)-3,4,5-tris(butanoyloxy)-6-{[3-(1H-indol-3-yl)propanoyl]oxy}oxan-2-yl]methyl Butanoate]	A (A: <25% of the tested compound remaining)	C (C: >75% of the tested compound remaining)	B (B: 25-75% of the tested compound remaining)
CCCC(=O)OC[C@H]1O[C@H](OC)[C@H](OC(=O)CCC)[C@@H](OC(=O)CCC)[C@@H]1OC(=O)CCC [Compound 87, [(2R,3R,4S,5R,6S)-3,4,5-tris(butanoyloxy)-6-methoxyoxan-2-yl]methyl Butanoate]	A (A: <25% of the tested compound remaining)	B (B: 25-75% of the tested compound remaining)	A (A: <25% of the tested compound remaining)
CCC(=O)O[C@@H]1[C@@H](OC(=O)CC)[C@H](OC(=O)/C=C/c2c[nH]c3ccccc23)OC[C@@H]1OC(=O)CC [Compound 132, (2S,3R,4S,5S)-3,4,5-tris(propanoyloxy)oxan-2-yl (2E)-3-(1H-indol-3-yl)prop-2-enoate]	A (A: <25% of the tested compound remaining)	B (B: 25-75% of the tested compound remaining)	
CCCC(=O)O[C@@H]1[C@@H](OC(=O)CCC)[C@H](C)O[C@H](OC(=O)CCc2c[nH]c3ccccc23)[C@@H]1OC(=O)CCC [Compound 119, (2R,3R,4R,5S,6S)-4,5-bis(butanoyloxy)-2-{[3-(1H-indol-3-yl)propanoyl]oxy}-6-methyloxan-3-yl Butanoate]	A (A: <25% of the tested compound remaining)	B (B: 25-75% of the tested compound remaining)	
CCCC(=O)O[C@@H]1[C@@H](OC(=O)CCC)[C@H](OC(=O)CCc2c[nH]c3ccccc23)OC[C@H]1OC(=O)CCC [Compound 129, (2S,3R,4S,5R)-4,5-bis(butanoyloxy)-2-{[3-(1H-indol-3-yl)propanoyl]oxy}oxan-3-yl Butanoate]	A (A: <25% of the tested compound remaining)	B (B: 25-75% of the tested compound remaining)	

Source: patent US10953027B2, “Active agents and methods of their use for the treatment of metabolic disorders and nonalcoholic fatty liver disease” (Flagship Pioneering Innovations V, Inc., priority 2018, dated 2021)
